Measurements from patent US8278345B2, “Inhibitors of glutaminyl cyclase” (Probiodrug AG, priority 2006, dated 2012).
pIC50: −log10 of the molar value. Like-named read-outs stand apart in the source and are kept apart here.

Biological target: hQC (Homo sapiens, UniProt Q16769)
Assay: Inhibitor assay for glutaminyl cyclase activity (fluorometric, H-Gln-βNA / H-Gln-AMC)
Type: biochemical
Summary of the method: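 Coupled fluorometric assay at 30 °C with pyroglutamyl aminopeptidase, in Tris/HCl pH 8.0 with EDTA, substrate H-Gln-βNA (0.2 mM; ex/em 320/410 nm) or H-Gln-AMC (ex/em 380/460 nm), initiated by QC. Screening: 4 mM inhibitor, substrate at 1 KM; Ki from progress curves fitted to competitive inhibition.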

[1] = compound from preparative synthesis, purified, read-out: IC50 hQC

Sequence of hQC (Q16769 29-361): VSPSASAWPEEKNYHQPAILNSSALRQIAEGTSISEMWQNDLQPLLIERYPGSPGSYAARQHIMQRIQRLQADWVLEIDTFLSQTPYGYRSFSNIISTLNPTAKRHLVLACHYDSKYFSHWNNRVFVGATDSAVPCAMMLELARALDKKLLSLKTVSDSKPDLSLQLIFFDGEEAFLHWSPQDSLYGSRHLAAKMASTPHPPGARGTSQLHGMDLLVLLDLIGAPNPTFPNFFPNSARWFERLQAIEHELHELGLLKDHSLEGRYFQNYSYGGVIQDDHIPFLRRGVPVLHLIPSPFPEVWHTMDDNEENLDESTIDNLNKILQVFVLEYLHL

Structure (SMILES)	pIC50 (read-out: IC50)	pIC50 [1]
O=C1C(O)=C(c2c[nH]c3ccccc23)C(c2ccc(CO)o2)N1CCCn1ccnc1 (stereo not shown) [Compound 126, 3-Hydroxy-5-(5-hydroxymethyl-furan-2-yl)-1-(3-imidazol-1-yl-propyl)-4-(1H-indol-3-yl)-1,5-dihydro-pyrrol-2-one]	6.40	–
O=C1C(O)=C(c2ccccc2)C(c2ccc(Cl)c(Cl)c2)N1c1ccc2[nH]cnc2c1 (stereo not shown) [Compound 264, 1-(1H-Benzoimidazol-5-yl)-5-(3,4-dichloro-phenyl)-3-hydroxy-4-phenyl-1,5-dihydro-pyrrol-2-one]	5.80	–
CCCCCC1C(c2cccc(O)c2)=C(O)C(=O)N1CCCn1ccnc1 (stereo not shown) [Compound 16, 3-Hydroxy-4-(3-hydroxy-phenyl)-1-(3-imidazol-1-yl-propyl)-5-pentyl-1,5-dihydro-pyrrol-2-one]	6.40	–
CC1=C(O)C(=O)N(c2ccc3[nH]cnc3c2)C1c1ccccc1F (stereo not shown) [Compound 386, 1-(1H-Benzoimidazol-5-yl)-5-(2-fluoro-phenyl)-3-hydroxy-4-methyl-1,5-dihydro-pyrrol-2-one]	5.71	–
O=C1C(O)=C(c2cccc(O)c2)C(C(O)CO)N1CCCn1ccnc1 (stereo not shown) [Compound 9, 5-(1,2-Dihydroxy-ethyl)-3-hydroxy-4-(3-hydroxy-phenyl)-1-(3-imidazol-1-yl-propyl)-1,5-dihydro-pyrrol-2-one]	5.66	–
COc1ccc(C2C(C)=C(O)C(=O)N2CCCn2ccnc2)cc1 (stereo not shown) [Compound 27, 3-Hydroxy-1-(3-imidazol-1-yl-propyl)-5-(4-methoxy-phenyl)-4-methyl-1,5-dihydro-pyrrol-2-one]	5.40	–
O=C1C(O)=C(c2c[nH]c3ccccc23)C(c2ccncc2)N1CCCn1ccnc1 (stereo not shown) [Compound 136, 3-Hydroxy-1-(3-imidazol-1-yl-propyl)-4-(1H-indol-3-yl)-5-pyridin-4-yl-1,5-dihydro-pyrrol-2-one]	7.40	–
CCC1=C(O)C(=O)N(c2ccc3[nH]cnc3c2)C1c1ccc(N2CCCC2)cc1 (stereo not shown) [Compound 406, 1-(1H-Benzoimidazol-5-yl)-4-ethyl-3-hydroxy-5-(4-pyrrolidin-1-yl-phenyl)-1,5-dihydro-pyrrol-2-one]	5.08	–
O=C1C(O)=C(c2c[nH]c3ccccc23)C(c2cccc(Cl)c2)N1CCCn1ccnc1 (stereo not shown) [Compound 143, 5-(3-Chloro-phenyl)-3-hydroxy-1-(3-imidazol-1-yl-propyl)-4-(1H-indol-3-yl)-1,5-dihydro-pyrrol-2-one]	7.40	6.87
CC1=C(O)C(=O)N(CCCn2ccnc2)C1c1ccccc1F (stereo not shown) [Compound 51, 5-(2-Fluoro-phenyl)-3-hydroxy-1-(3-imidazol-1-yl-propyl)-4-methyl-1,5-dihydro-pyrrol-2-one]	5.89	–
CCCC(=O)C1=C(O)C(=O)N(c2ccc3[nH]cnc3c2)C1c1ccc(CO)o1 (stereo not shown) [Compound 432, 1-(1H-Benzoimidazol-5-yl)-4-butyryl-3-hydroxy-5-(5-hydroxymethyl-furan-2-yl)-1,5-dihydro-pyrrol-2-one]	5.58	–
CC(=O)C1=C(O)C(=O)N(c2ccc3[nH]cnc3c2)C1c1cc(C)c(C)o1 (stereo not shown) [Compound 433, 4-Acetyl-1-(1H-benzoimidazol-5-yl)-5-(4,5-dimethyl-furan-2-yl)-3-hydroxy-1,5-dihydro-pyrrol-2-one]	5.92	–
CCC1=C(O)C(=O)N(CCCn2ccnc2)C1C (stereo not shown) [Compound 233, 4-Ethyl-3-hydroxy-1-(3-imidazol-1-yl-propyl)-5-methyl-1,5-dihydro-pyrrol-2-one]	5.66	–
CSCC1=C(O)C(=O)N(c2ccc3[nH]cnc3c2)C1c1cccc(F)c1 (stereo not shown) [Compound 299, 1-(1H-Benzoimidazol-5-yl)-5-(3-fluoro-phenyl)-3-hydroxy-4-methylsulfanylmethyl-1,5-dihydro-pyrrol-2-one]	5.28	–
Cc1ccc2occ(C3C(C(C)C)=C(O)C(=O)N3c3ccc4[nH]cnc4c3)c(=O)c2c1 (stereo not shown) [Compound 331, 1-(1H-Benzoimidazol-5-yl)-3-hydroxy-4-isopropyl-5-(6-methyl-4-oxo-4H-chromen-3-yl)-1,5-dihydro-pyrrol-2-one]	5.86	–
O=C1C(O)=C(c2ccc(O)cc2)C(c2ccccc2)N1CCCn1ccnc1 (stereo not shown) [Compound 162, 3-Hydroxy-4-(4-hydroxy-phenyl)-1-(3-imidazol-1-yl-propyl)-5-phenyl-1,5-dihydro-pyrrol-2-one]	7.40	–
O=C1C(O)=C(c2c[nH]c3ccccc23)C(C(O)CO)N1CCCn1ccnc1 (stereo not shown) [Compound 117, 5-(1,2-Dihydroxy-ethyl)-3-hydroxy-1-(3-imidazol-1-yl-propyl)-4-(1H-indol-3-yl)-1,5-dihydro-pyrrol-2-one]	6.40	–
Cc1ccc(C2C(c3ccc(O)cc3)=C(O)C(=O)N2CCCn2ccnc2)cc1C (stereo not shown) [Compound 158, 5-(3,4-Dimethyl-phenyl)-3-hydroxy-4-(4-hydroxy-phenyl)-1-(3-imidazol-1-yl-propyl)-1,5-dihydro-pyrrol-2-one]	7.40	6.67
CC(C)CC(=O)C1=C(O)C(=O)N(c2ccc3[nH]cnc3c2)C1c1ccco1 (stereo not shown) [Compound 413, 1-(1H-Benzoimidazol-5-yl)-5-furan-2-yl-3-hydroxy-4-(3-methyl-butyryl)-1,5-dihydro-pyrrol-2-one]	5.83	–

Structure (SMILES)	pIC50 (read-out: IC50)	pIC50 [1]
O=C(O)c1ccc(C2C(c3ccc(O)cc3)=C(O)C(=O)N2c2ccc3[nH]cnc3c2)o1 (stereo not shown) [Compound 389, 5-[1-(1H-Benzoimidazol-5-yl)-4-hydroxy-3-(4-hydroxy-phenyl)-5-oxo-2,5-dihydro-1H-pyrrol-2-yl]-furan-2-carboxylic acid]	6.66	–
O=C1C(O)=C(c2cccc(O)c2)C(c2cc[nH]n2)N1CCCn1ccnc1 (stereo not shown) [Compound 8, 3-Hydroxy-4-(3-hydroxy-phenyl)-1-(3-imidazol-1-yl-propyl)-5-(1H-pyrazol-3-yl)-1,5-dihydro-pyrrol-2-one]	5.03	–
O=C1C(O)=C(c2ccc(O)cc2)C(c2cc(Cl)cc(Cl)c2O)N1CCCn1ccnc1 (stereo not shown) [Compound 147, 5-(3,5-Dichloro-2-hydroxy-phenyl)-3-hydroxy-4-(4-hydroxy-phenyl)-1-(3-imidazol-1-yl-propyl)-1,5-dihydro-pyrrol-2-one]	7.40	–
O=C1C(O)=C(c2ccccc2)C(CO)N1CCCn1ccnc1 (stereo not shown) [Compound 104, 3-Hydroxy-5-hydroxymethyl-1-(3-imidazol-1-yl-propyl)-4-phenyl-1,5-dihydro-pyrrol-2-one]	7.40	–
Cc1ccc(C2C(c3ccc(O)cc3)=C(O)C(=O)N2CCCn2ccnc2)o1 (stereo not shown) [Compound 154, 3-Hydroxy-4-(4-hydroxy-phenyl)-1-(3-imidazol-1-yl-propyl)-5-(5-methyl-furan-2-yl)-1,5-dihydro-pyrrol-2-one]	7.40	–
CCCC(=O)C1=C(O)C(=O)N(c2ccc3[nH]cnc3c2)C1 [Compound 362, 1-(1H-Benzoimidazol-5-yl)-4-butyryl-3-hydroxy-1,5-dihydro-pyrrol-2-one]	5.33	–
O=C1C(O)=C(c2ccccc2)C(c2cccs2)N1CCCn1ccnc1 (stereo not shown) [Compound 103, 3-Hydroxy-1-(3-imidazol-1-yl-propyl)-4-phenyl-5-thiophen-2-yl-1,5-dihydro-pyrrol-2-one]	5.89	–
CCC1=C(O)C(=O)N(CCCn2ccnc2)C1c1c[nH]c2ccccc12 (stereo not shown) [Compound 241, 4-Ethyl-3-hydroxy-1-(3-imidazol-1-yl-propyl)-5-(1H-indol-3-yl)-1,5-dihydro-pyrrol-2-one]	7.40	–
CC1=C(O)C(=O)N(CCCn2ccnc2)C1c1c[nH]c2cc(C)ccc12 (stereo not shown) [Compound 37, 3-Hydroxy-1-(3-imidazol-1-yl-propyl)-4-methyl-5-(6-methyl-1H-indol-3-yl)-1,5-dihydro-pyrrol-2-one]	6.40	–
O=C1C(O)=C(c2ccccc2)C(C(O)CO)N1CCCn1ccnc1 (stereo not shown) [Compound 82, 5-(1,2-Dihydroxy-ethyl)-3-hydroxy-1-(3-imidazol-1-yl-propyl)-4-phenyl-1,5-dihydro-pyrrol-2-one]	5.51	–
CC1=C(O)C(=O)N(CCCn2ccnc2)C1c1ccc(O)cc1 (stereo not shown) [Compound 52, 3-Hydroxy-5-(4-hydroxy-phenyl)-1-(3-imidazol-1-yl-propyl)-4-methyl-1,5-dihydro-pyrrol-2-one]	5.89	–
CCCCCC1=C(O)C(=O)N(CCCn2ccnc2)C1C(O)CO (stereo not shown) [Compound 189, 5-(1,2-Dihydroxy-ethyl)-3-hydroxy-1-(3-imidazol-1-yl-propyl)-4-pentyl-1,5-dihydro-pyrrol-2-one]	6.40	–
CCC1C(c2ccc(O)cc2)=C(O)C(=O)N1CCCn1ccnc1 (stereo not shown) [Compound 178, 5-Ethyl-3-hydroxy-4-(4-hydroxy-phenyl)-1-(3-imidazol-1-yl-propyl)-1,5-dihydro-pyrrol-2-one]	6.40	–
O=C1C(O)=C(c2cccc(O)c2)C(c2ccc3[nH]ccc3c2)N1CCCn1ccnc1 (stereo not shown) [Compound 12, 3-Hydroxy-4-(3-hydroxy-phenyl)-1-(3-imidazol-1-yl-propyl)-5-(1H-indol-5-yl)-1,5-dihydro-pyrrol-2-one]	5.89	–
O=C1C(O)=C(c2ccccc2)C(c2cccc(O)c2)N1CCCn1ccnc1 (stereo not shown) [Compound 112, 3-Hydroxy-5-(3-hydroxy-phenyl)-1-(3-imidazol-1-yl-propyl)-4-phenyl-1,5-dihydro-pyrrol-2-one]	6.40	5.71
CC1=C(O)C(=O)N(CCCn2ccnc2)C1c1cccs1 (stereo not shown) [Compound 45, 3-Hydroxy-1-(3-imidazol-1-yl-propyl)-4-methyl-5-thiophen-2-yl-1,5-dihydro-pyrrol-2-one]	5.51	–
CC(C)CC(=O)C1=C(O)C(=O)N(c2ccc3[nH]cnc3c2)C1c1ccc(-c2ccccn2)cc1 (stereo not shown) [Compound 455, 1-(1H-Benzoimidazol-5-yl)-3-hydroxy-4-(3-methyl-butyryl)-5-(4-pyridin-2-yl-phenyl)-1,5-dihydro-pyrrol-2-one]	6.89	–
O=C1C(O)=C(c2ccccc2)C(c2ccncc2)N1CCCn1ccnc1 (stereo not shown) [Compound 102, 3-Hydroxy-1-(3-imidazol-1-yl-propyl)-4-phenyl-5-pyridin-4-yl-1,5-dihydro-pyrrol-2-one]	5.07	–
